Columns and labels:
Assay in all cases: relative viability (nuclei count vs DMSO), 5 days (fraction); higher = more cells survive
Metformin + Crizotinib = compound: CN(C)C(=N)NC(=N)N [Metformin] + C[C@@H](Oc1cc(-c2cnn(C3CCNCC3)c2)cnc1N)c1c(Cl)ccc(F)c1Cl [Crizotinib] (partner 1 µM)
Method in brief: (§1)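 Lung cancer cell lines in 1536-well plates were dosed by pin tool the day after seeding, either with one drug alone or with a fixed anchor-drug dose plus five library-drug doses (not always all listed) in √10 steps. After 5 days, cells were fixed and their nuclei stained in one step (final 0.05% Triton X-100, 1% formaldehyde, 1 ug/ml Hoechst), then counted on 4× images. Relative viability is the nuclei count in treated wells divided by that in vehicle wells. Values are medians of duplicate plates.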

Metformin + Foretinib = compound: CN(C)C(=N)NC(=N)N [Metformin] + COc1cc2c(Oc3ccc(NC(=O)C4(C(=O)Nc5ccc(F)cc5)CC4)cc3F)ccnc2cc1OCCCN1CCOCC1 [Foretinib] (partner 0.25 µM)
Method in brief: as §1

Apatinib + Pictilisib = compound: N#CC1(c2ccc(NC(=O)c3cccnc3NCc3ccncc3)cc2)CCCC1 [Apatinib] + CS(=O)(=O)N1CCN(Cc2cc3nc(-c4cccc5[nH]ncc45)nc(N4CCOCC4)c3s2)CC1 [Pictilisib] (partner 1 µM)
Method in brief: as §1

Metformin + Linsitinib = compound: CN(C)C(=N)NC(=N)N [Metformin] + C[C@]1(O)C[C@@H](c2nc(-c3ccc4ccc(-c5ccccc5)nc4c3)c3c(N)nccn32)C1 [Linsitinib] (partner 1 µM)
Method in brief: as §1

Cell Line | relative viability (Metformin + Crizotinib; first compound 10 µM) | relative viability (Metformin + Crizotinib; first compound 31.62 µM) | relative viability (Metformin + Crizotinib; first compound 100 µM) | relative viability (Metformin + Crizotinib; first compound 316.23 µM) | relative viability (Metformin + Crizotinib; first compound 1000 µM) | relative viability (Metformin + Foretinib; first compound 10 µM) | relative viability (Metformin + Foretinib; first compound 31.62 µM) | relative viability (Metformin + Foretinib; first compound 100 µM) | relative viability (Metformin + Foretinib; first compound 316.23 µM) | relative viability (Metformin + Foretinib; first compound 1000 µM) | relative viability (Apatinib + Pictilisib; first compound 0.08 µM) | relative viability (Apatinib + Pictilisib; first compound 0.253 µM) | relative viability (Apatinib + Pictilisib; first compound 0.8 µM) | relative viability (Apatinib + Pictilisib; first compound 2.53 µM) | relative viability (Apatinib + Pictilisib; first compound 8 µM) | relative viability (Metformin + Linsitinib; first compound 10 µM) | relative viability (Metformin + Linsitinib; first compound 31.62 µM) | relative viability (Metformin + Linsitinib; first compound 100 µM) | relative viability (Metformin + Linsitinib; first compound 316.23 µM) | relative viability (Metformin + Linsitinib; first compound 1000 µM)
NCI-H322M | 0.884 | 1.01 | 0.958 | 0.854 | 0.78 | 1.14 | 1.03 | 1.05 | 1.1 | 0.935 | 0.513 | 0.488 | 0.523 | 0.627 | 0.528 | 1.04 | 0.954 | 0.934 | 0.864 | 0.915
NCI-H1437 | 0.931 | 0.918 | 0.935 | 0.898 | 0.902 | 1.3 | 1.31 | 1.32 | 1.29 | 1.21 | 0.468 | 0.441 | 0.377 | 0.392 | 0.284 | 1.22 | 1.09 | 1.11 | 1.1 | 1.19
NCI-H23 | 0.574 | 0.692 | 0.693 | 0.548 | 0.811 | 0.925 | 1.1 | 1.01 | 0.953 | 1.08 | 0.547 | 0.522 | 0.458 | 0.426 | 0.492 | 0.701 | 0.623 | 0.705 | 0.675 | 0.763
NCI-H647 | 0.982 | 1.02 | 0.955 | 0.939 | 0.942 | 1.08 | 1.07 | 1.26 | 0.932 | 1.1 | 0.492 | 0.5 | 0.419 | 0.349 | 0.395 | 1.11 | 1.14 | 1.24 | 1.19 | 1.2
NCI-H2009 | 1.06 | 1.07 | 1.11 | 1.04 | 0.878 | 1.21 | 1.31 | 1.31 | 1.13 | 1.04 | 1.12 | 0.727 | 0.737 | 0.644 | 0.501 | 1.22 | 1.17 | 1.17 | 0.781 | 0.9
HCC-78 | 0.422 | 0.487 | 0.498 | 0.491 | 0.529 | 0.752 | 0.674 | 0.894 | 0.662 | 0.79 | 0.299 | 0.158 | 0.236 | 0.221 | 0.205 | 0.842 | 0.927 | 0.877 | 0.681 | 0.927
NCI-H1299 | 0.98 | 0.962 | 0.975 | 0.972 | 1.04 | 1.09 | 1.12 | 1.14 | 1.11 | 1.13 | 0.882 | 0.88 | 0.738 | 0.646 | 0.406 | 1.03 | 1.04 | 1 | 0.958 | 0.974
LCLC-97TM1 | 0.401 | 0.4 | 0.457 | 0.382 | 0.543 | 0.912 | 0.808 | 0.875 | 0.895 | 1.02 | 0.221 | 0.147 | 0.216 | 0.316 | 0.143 | 0.175 | 0.17 | 0.146 | 0.187 | 0.243
NCI-H650 | 0.709 | 0.669 | 0.908 | 0.709 | 0.862 | 1.18 | 1.31 | 1.23 | 1.24 | 1.18 | 0.963 | 0.878 | 0.847 | 0.678 | 0.654 | 0.859 | 0.955 | 0.845 | 0.983 | 1.3
HOP-62 | 0.917 | 0.995 | 1.11 | 0.765 | 0.917 | 0.882 | 1.08 | 1.08 | 0.985 | 1 | 0.85 |  | 0.816 | 0.758 | 0.466 | 0.891 | 1.09 | 0.995 | 1.04 | 0.846
